Laboratory results: ChEMBL document CHEMBL5625190, “Novel fused imidazotriazines acting as promising top. II inhibitors and apoptotic inducers with greater selectivity against head and neck tumors: Design, synthesis, and biological assessments” (Eur J Med Chem, 2023)

What was measured:
NCI-H460 = experiment: Growth inhibition of human NCI-H460 cells assessed as reduction in cell viability at 100 ug/ml by SRB colorimetric assay relative to control; assay type: functional; conditions: read-out: GI
Huh-7 = experiment: Growth inhibition of human Huh-7 cells assessed as reduction in cell viability at 100 ug/ml by SRB colorimetric assay relative to control; assay type: functional; conditions: read-out: GI
BT-474 = experiment: Growth inhibition of human BT-474 cells assessed as reduction in cell viability at 100 ug/ml by SRB colorimetric assay relative to control; assay type: functional; conditions: read-out: GI
A-375 = experiment: Growth inhibition of human A-375 cells assessed as reduction in cell viability at 100 ug/ml by SRB colorimetric assay relative to control; assay type: functional; conditions: read-out: GI
A549 = experiment: Growth inhibition of human A549 cells assessed as reduction in cell viability at 100 ug/ml by SRB colorimetric assay relative to control; assay type: functional; conditions: read-out: GI
HepG2 = experiment: Growth inhibition of human HepG2 cells assessed as reduction in cell viability at 100 ug/ml by SRB colorimetric assay relative to control; assay type: functional; conditions: read-out: GI
MG-63 = experiment: Growth inhibition of human MG-63 cells assessed as reduction in cell viability at 100 ug/ml by SRB colorimetric assay relative to control; assay type: functional; conditions: read-out: GI
HNO 97 cell line = experiment: Growth inhibition of human HNO 97 cell line assessed as reduction in cell viability at 100 ug/ml by SRB colorimetric assay relative to control; assay type: functional; conditions: read-out: GI
PC-3 = experiment: Growth inhibition of human PC-3 cells assessed as reduction in cell viability at 100 ug/ml by SRB colorimetric assay relative to control; assay type: functional; conditions: read-out: GI
Caco-2 = experiment: Growth inhibition of human Caco-2 cells assessed as reduction in cell viability at 100 ug/ml by SRB colorimetric assay relative to control; assay type: functional; conditions: read-out: GI
HCT-116 = experiment: Growth inhibition of human HCT-116 cells assessed as reduction in cell viability at 100 ug/ml by SRB colorimetric assay relative to control; assay type: functional; conditions: read-out: GI
[1] = Growth inhibition of human Oral epithelial cell assessed as reduction in cell viability at 100 ug/ml by SRB colorimetric assay relative to control; assay type: toxicity, cell-based; conditions: oral epithelial cells, at 100 µg/mL, read-out: GI
MDA-MB-231 = experiment: Growth inhibition of human MDA-MB-231 cells assessed as reduction in cell viability at 100 ug/ml by SRB colorimetric assay relative to control; assay type: functional; conditions: read-out: GI
MCF7 = experiment: Growth inhibition of human MCF7 cells assessed as reduction in cell viability at 100 ug/ml by SRB colorimetric assay relative to control; assay type: functional; conditions: read-out: GI
[2] = target: DNA topoisomerase 2-beta (Homo sapiens) (UniProt Q02880); experiment: Inhibition of human DNA topoisomerase 2-beta by ELISA method relative to control; conditions: concentration not given here
Chain of DNA topoisomerase 2-beta (Homo sapiens) (Q02880 whole entry): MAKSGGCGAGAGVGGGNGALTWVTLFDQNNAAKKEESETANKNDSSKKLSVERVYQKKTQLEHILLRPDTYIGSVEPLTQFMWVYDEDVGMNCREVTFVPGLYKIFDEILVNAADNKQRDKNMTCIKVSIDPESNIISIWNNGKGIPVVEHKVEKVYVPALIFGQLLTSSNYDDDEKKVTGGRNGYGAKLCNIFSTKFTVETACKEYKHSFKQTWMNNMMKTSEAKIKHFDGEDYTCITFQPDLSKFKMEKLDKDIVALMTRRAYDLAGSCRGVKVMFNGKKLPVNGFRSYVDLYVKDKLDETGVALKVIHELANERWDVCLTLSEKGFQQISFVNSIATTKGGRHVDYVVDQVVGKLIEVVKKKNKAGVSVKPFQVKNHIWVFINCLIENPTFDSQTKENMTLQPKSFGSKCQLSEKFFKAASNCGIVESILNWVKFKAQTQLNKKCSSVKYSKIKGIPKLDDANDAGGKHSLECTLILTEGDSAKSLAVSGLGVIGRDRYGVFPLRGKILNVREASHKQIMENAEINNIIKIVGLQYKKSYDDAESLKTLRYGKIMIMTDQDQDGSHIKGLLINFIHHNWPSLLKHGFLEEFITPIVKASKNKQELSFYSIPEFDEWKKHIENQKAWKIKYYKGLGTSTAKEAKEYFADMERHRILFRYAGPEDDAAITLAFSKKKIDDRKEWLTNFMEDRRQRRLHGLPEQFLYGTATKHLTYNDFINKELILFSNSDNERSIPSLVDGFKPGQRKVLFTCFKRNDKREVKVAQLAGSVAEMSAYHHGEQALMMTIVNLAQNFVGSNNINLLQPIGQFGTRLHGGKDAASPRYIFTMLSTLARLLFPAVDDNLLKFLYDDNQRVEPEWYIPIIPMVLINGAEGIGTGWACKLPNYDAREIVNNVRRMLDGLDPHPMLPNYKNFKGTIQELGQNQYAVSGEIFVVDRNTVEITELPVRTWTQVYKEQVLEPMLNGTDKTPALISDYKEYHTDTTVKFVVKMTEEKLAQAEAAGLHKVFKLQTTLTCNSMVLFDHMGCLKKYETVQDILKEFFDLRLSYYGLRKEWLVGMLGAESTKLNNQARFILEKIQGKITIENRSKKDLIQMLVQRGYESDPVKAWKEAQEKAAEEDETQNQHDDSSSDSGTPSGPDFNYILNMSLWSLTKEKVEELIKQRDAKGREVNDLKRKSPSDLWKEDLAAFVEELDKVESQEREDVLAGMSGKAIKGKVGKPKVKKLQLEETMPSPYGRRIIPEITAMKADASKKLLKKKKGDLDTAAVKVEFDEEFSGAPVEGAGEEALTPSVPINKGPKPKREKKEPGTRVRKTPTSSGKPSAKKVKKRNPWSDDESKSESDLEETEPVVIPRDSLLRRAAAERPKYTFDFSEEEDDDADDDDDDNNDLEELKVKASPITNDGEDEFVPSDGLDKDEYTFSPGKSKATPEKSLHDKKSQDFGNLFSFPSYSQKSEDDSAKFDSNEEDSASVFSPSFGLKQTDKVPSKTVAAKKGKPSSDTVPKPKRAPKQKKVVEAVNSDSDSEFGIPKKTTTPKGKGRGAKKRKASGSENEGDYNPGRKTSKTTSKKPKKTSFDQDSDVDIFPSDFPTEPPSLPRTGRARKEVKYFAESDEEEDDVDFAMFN

inhibition [2] [%]	SMILES	inhibition of growth at 100 µg/mL (NCI-H460) [%]	inhibition of growth at 100 µg/mL (Huh-7) [%]	inhibition of growth at 100 µg/mL (BT-474) [%]	inhibition of growth at 100 µg/mL (A-375) [%]	inhibition of growth at 100 µg/mL (A549) [%]	inhibition of growth at 100 µg/mL (HepG2) [%]	inhibition of growth at 100 µg/mL (MG-63) [%]	inhibition of growth at 100 µg/mL (HNO 97 cell line) [%]	inhibition of growth at 100 µg/mL (PC-3) [%]	inhibition of growth at 100 µg/mL (Caco-2) [%]	inhibition of growth at 100 µg/mL (HCT-116) [%]	inhibition at 100 ug/ml [1] [%]	inhibition of growth at 100 µg/mL (MDA-MB-231) [%]	inhibition of growth at 100 µg/mL (MCF7) [%]
	NC1=Nc2nc3ccccc3n2C(c2c[nH]c3ccccc23)N1 (configuration not stated)	63.5	65.3	34.4	69.2	58.8	69.2	56.2	75.3	54.2	61.7	64.3	51.3	34.3	56.5
	COc1cc(C2NC(N)=Nc3nc4ccccc4n32)cc(OC)c1OC (configuration not stated)	69.6	70.1	69.9	61.8	67.5	73.9	59.4	82.2	60	69	63.6	32.7	79.4	72
	NC1=Nc2nc3ccccc3n2C(c2ccc3ccccc3c2)N1 (configuration not stated)	65	54.6	55.3	44.1	56.7	45	58.6	57.3	54.8	61	50.2	55.7	66.6	48.8
	NC1=NC(c2ccccc2)n2c(nc3ccccc32)N1 (configuration not stated)	65.3	68.1	51.4	63.4	59.1	66.6	56	78.1	72.7	61.7	61.1	24.4	68.2	60.2
	NC1=Nc2nc3ccccc3n2C(c2cccc3ccccc23)N1 (configuration not stated)	61.1	58.7	61.4	52.8	54.4	59	58	61.1	59	59.9	55.7	45.9	76.2	53.7
	NC1=Nc2nc3ccccc3n2C(c2ccc([N+](=O)[O-])cc2)N1 (configuration not stated)	74.7	56.9	60.2	58.6	65.6	74.3	53.4	70.4	61.2	65.9	61.3	40.3	74.6	61.2
	NC1=Nc2nc3ccccc3n2C(c2cccs2)N1 (configuration not stated)	58.8	65	5.76	56.4	61.4	64.9	49.9	71.8	48	62.9	64.4	59.6	38.7	56.2
	Cc1ccc(C2NC(N)=Nc3nc4ccccc4n32)o1 (configuration not stated)	61.6	50	13.2	58.5	56.2	61.5	50.6	57.5	55.2	56.2	60.9	59.7	27.4	51.6
	NC1=NC(c2cccnc2)n2c(nc3ccccc32)N1 (configuration not stated)	58.1	57.2	0.93	56	55.6	67.8	42.4	64.8	52.2	53.7	65.2	52.7	30.5	60.7
	CN(C)c1ccc(C2NC(N)=Nc3nc4ccccc4n32)cc1 (configuration not stated)	70.9	70	60.1	68.5	67.7	78.8	58	80.8	57.5	64	64.1	14.2	61	63.2
	COc1ccc(OC)c(C2N=C(N)Nc3nc4ccccc4n32)c1 (configuration not stated)	63.2	54.8	46.3	52.1	54.9	63.6	46.8	76.6	46	52.5	49.3	10.2	64.9	54.4
	NC1=Nc2nc3ccccc3n2C(c2cccc(Cl)c2Cl)N1 (configuration not stated)	73.1	67	60.4	68.7	67.8	72.5	63.2	78.6	71.5	61.1	59.6	38.4	75.1	63.6
	COc1cc(C2NC(N)=Nc3nc4ccccc4n32)ccc1OCc1ccccc1 (configuration not stated)	30.4	26.9	1	45.1	30.5	41.3	13.1	63.2	44.6	40.1	39	21	51.7	48.9
77.5	CC(C)c1ccc(C2N=C(N)Nc3nc4ccccc4n32)cc1 (configuration not stated)	65.6	54.7	61.7	58.1	49	63.7	58	75.7	71.7	59.2	55.6	7.69	78.6	55.4
